Source: article PMC6069857, “Effects of novel HDAC inhibitors on urothelial carcinoma cells” (Clinical Epigenetics, 2018)

Columns and labels:
UM-UC-3-HDAC4 = experiment: MTT viability assay (CC50); assay type: cell-based, human; conditions: UM-UC-3-HDAC4 (HDAC4-overexpressing), 72 h
Description: HDAC4 cDNA from the pcDNA-HDAC4-FLAG plasmid kindly provided by Tso-Pang Yao (Addgene plasmid # 30485) was cloned into the lentiviral vector puc2CL12IPwo using standard techniques, thereby creating the vector puc2CL12IPwo-HDAC4-FLAG (Additional file 1: Figure S1). Integrity of the HDAC4 coding sequence was verified by sequencing. Lentivirus production and cell transduction were performed as previously described. In brief, to produce replication-deficient lentiviruses, HEK-293T cells were transfected with helper plasmid expression construct (pCD/NL-BH [35]), envelope vector (pczVSV-G [36]), and the vector plasmids puc2CL12IPwo or puc2CL12IPwo-HDAC4-FLAG. Viral particles were harvested 48 h after transfection and used to transduce VM-CUB1 and UM-UC-3 cells using 8 μg/ml polybrene (Sigma Aldrich, St. Louis, MO). Twenty-four hours after transduction, the supernatant containing viral particles was removed and the transduced cells were selected with 4 (VM-CUB1) or 1 (UM-UC-3) μg/ml puromycin (Invitrogen, Carlsbad, CA) for 7 days. Stable overexpression of HDAC4 was confirmed by Western blot analysis of cells from several passages.
(§1) For the determination of cellular mean cytotoxic concentration (CC50), UCCs, non-malignant control cells, and HDAC4-overexpressing clones were seeded in a 96-well format and treated once with a range of defined concentrations of the HDAC inhibitors. After 72 h, viability was quantified by NAD(P)H-dependent 3-(4,5-dimethylthiazol-2-yl)-2,5-diphenyltetrazolium bromide dye reduction assay (MTT, Sigma Aldrich, St. Louis, MO). CC50 values were estimated from three independent experiments by non-linear regression analysis (four-parameter logistic equation) using Prism 4.0 (Graph Pad) or Origin 8.0 (Origin Lab, Northhampton, GB). For time-dependent proliferation experiments, viability of untreated or inhibitor-treated cells was measured after 24, 48, and 72 h.

HDAC2 [1] = target: T1, HDAC2 (Homo sapiens, UniProt Q92769); experiment: In vitro fluorescence-based HDAC inhibition assay (Reaction Biology); conditions: read-out: IC50 HDAC2; experiment performed once
[2] = test system: VM-CUB1 and UM-UC-3 cells; experiment: Nuclear morphology analysis (DAPI, rhodamine phalloidin); assay type: cell-based, human; conditions: 19i 2 μM, 24 or 48 h
Description: As previously described, after fixation with 4% formaldehyde, cells were permeabilized (0.3% Triton X100 in PBS, 10 min, RT), blocked (1% BSA in PBS, 30 min, RT), and subsequently incubated for 1 h at RT with 14 nM Rhodamine Phalloidin in blocking solution. Following counter-staining of nuclei with 1 μg/ml DAPI (4′,6-diamidino-2-phenylindole), cells were mounted with fluorescence mounting medium (DAKO, Glostrup, Denmark). For each treatment option and sample, 500 cells were counted and the amount of mitosis and micronuclei was quantified using a Nikon Eclipse 400 microscope (Nikon, Tokyo, Japan).

HDAC3 = HDAC3 (Homo sapiens, UniProt O15379); experiment: In vitro fluorescence-based HDAC inhibition assay (Reaction Biology); conditions: read-out: IC50 HDAC3; experiment performed once
UC cells = experiment: Clonogenicity assay with Giemsa staining; assay type: cell-based, human; conditions: 2 μM 19i for 48 h, replated
Description: Then, depending on the cell line, 500–1000 cells were seeded in 6-cm plates, and 10 to 15 days later, colonies were washed with PBS, fixed in methanol, and stained with Giemsa (Merck Millipore, Darmstadt, Germany).

HDAC2 [3] = target: T1, HDAC2; set-up: purchased Reaction Biology Corp. (Malvern, PA); conditions: previously reported; given for HDAC1/2 together; cited from earlier work
[4] = test system: UCCs VM-CUB1, UM-UC-3, and 639-V; conditions: 19i 2 μM, 24 and 48 h
Source text: Caspase activity after inhibitor treatment was quantified by the Caspase-Glo 3/7 assay and normalized to cell viability measured by CellTiter-Glo® reagent (Promega, Mannheim, Germany) as previously described. Briefly, following exposure to inhibitors, defined aliquots of trypsinized cells were transferred to 96-well plates for viability and caspase-3/7 measurements according to the manufacturer’s protocol.

HDAC1 = HDAC1 (Homo sapiens, UniProt Q13547); experiment: In vitro fluorescence-based HDAC inhibition assay (Reaction Biology); conditions: read-out: IC50 HDAC1; experiment performed once
VM-CUB1 = experiment: MTT viability assay (CC50); assay type: cell-based, human; conditions: VM-CUB1, MTT, 72 h of incubation
Description: (§2) Further experiments were performed in VM-CUB1 and UM-UC-3 cells overexpressing HDAC4 (see below). Standard UCCs were obtained from the DSMZ (Braunschweig, Germany) and Dr. H.B. Grossmann HB (Houston, USA). For comparison, we investigated the spontaneously immortalized normal human bladder cell line HBLAK (provided by CELLnTEC, Bern, Switzerland) and the immortalized human embryonic kidney cell line HEK-293 (provided by Dr. V. Kolb-Bachofen, Duesseldorf, Germany). Cells were cultured and treated in DMEM GlutaMAX-I (Gibco, Darmstadt, Germany; UCCs and HEK-293) supplemented with 10% fetal calf serum (Biochrom, Berlin, Germany), except for HBLAK cultured in CnT-Prime Epithelial Culture Medium (CELLnTEC, Bern, Switzerland; HBLAK), at 37 °C and 5% CO2. STR (short tandem repeat) profiling via DNA fingerprint analysis was performed for all cell lines. Primary cultures of normal urothelial cells (UP) were established from healthy ureters removed during tumor nephrectomy and cultured as described. These cultures were used with informed consent of the patients and approval by the Ethics Committee of the Medical Faculty of the Heinrich-Heine-University, study number 1788. All inhibitors were dissolved in DMSO and stored as 10 mM stocks. […] The pan-HDACi inhibitor SAHA previously studied in detail was used for comparison. Solvent control cells were treated with equal amounts of DMSO.
as §1

639-V = experiment: MTT viability assay (CC50); assay type: cell-based, human; conditions: 72 h of incubation
Description: as §2, §1

UM-UC-3 = experiment: MTT viability assay (CC50); assay type: cell-based, human; conditions: UM-UC-3, MTT, 72 h of incubation
Description: as §2, §1

HBLAK = experiment: MTT viability assay (CC50); assay type: cell-based, human; conditions: 72 h of incubation
Description: as §2, §1

HEK-293 = experiment: MTT viability assay (CC50); assay type: cell-based, human; conditions: HEK-293, MTT, 72 h of incubation
Description: as §2, §1

HDAC10 = HDAC10 (Homo sapiens, UniProt Q969S8); experiment: In vitro fluorescence-based HDAC inhibition assay (Reaction Biology); conditions: read-out: IC50 HDAC10; experiment performed once
Chain of HDAC10 (Q969S8 whole entry): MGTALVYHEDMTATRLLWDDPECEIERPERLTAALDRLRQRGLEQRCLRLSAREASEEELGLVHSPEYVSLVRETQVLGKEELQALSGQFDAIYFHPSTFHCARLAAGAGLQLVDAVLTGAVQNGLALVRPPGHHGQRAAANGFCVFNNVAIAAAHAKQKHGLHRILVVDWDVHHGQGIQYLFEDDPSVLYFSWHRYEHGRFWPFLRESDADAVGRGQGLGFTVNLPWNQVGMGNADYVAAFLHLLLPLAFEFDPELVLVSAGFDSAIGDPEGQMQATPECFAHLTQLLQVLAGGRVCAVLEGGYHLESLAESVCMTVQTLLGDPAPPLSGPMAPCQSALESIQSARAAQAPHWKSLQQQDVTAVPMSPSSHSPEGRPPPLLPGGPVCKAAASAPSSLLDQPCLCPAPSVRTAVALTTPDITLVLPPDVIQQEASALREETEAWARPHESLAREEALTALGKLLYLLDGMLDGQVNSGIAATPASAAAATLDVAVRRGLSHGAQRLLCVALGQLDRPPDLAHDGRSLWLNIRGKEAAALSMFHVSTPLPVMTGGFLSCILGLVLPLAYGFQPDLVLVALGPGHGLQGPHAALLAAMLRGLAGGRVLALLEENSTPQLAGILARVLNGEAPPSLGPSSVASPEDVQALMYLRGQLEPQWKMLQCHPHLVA

T1 sequence (Q92769 whole entry): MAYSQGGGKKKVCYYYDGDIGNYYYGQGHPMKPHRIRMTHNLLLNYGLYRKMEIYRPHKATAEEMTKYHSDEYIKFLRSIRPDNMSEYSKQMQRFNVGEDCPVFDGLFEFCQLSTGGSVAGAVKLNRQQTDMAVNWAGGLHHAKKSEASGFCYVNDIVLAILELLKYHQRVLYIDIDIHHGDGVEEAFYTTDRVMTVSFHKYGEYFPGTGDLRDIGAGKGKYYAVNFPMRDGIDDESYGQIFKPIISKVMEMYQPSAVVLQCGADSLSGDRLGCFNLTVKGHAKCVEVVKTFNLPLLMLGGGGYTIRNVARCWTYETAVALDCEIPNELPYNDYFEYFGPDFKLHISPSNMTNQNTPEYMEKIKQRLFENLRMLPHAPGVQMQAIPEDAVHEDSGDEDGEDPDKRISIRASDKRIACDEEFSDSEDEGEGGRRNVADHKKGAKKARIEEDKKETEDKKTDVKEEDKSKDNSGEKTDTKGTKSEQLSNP
Chain of HDAC1 (Q13547 whole entry): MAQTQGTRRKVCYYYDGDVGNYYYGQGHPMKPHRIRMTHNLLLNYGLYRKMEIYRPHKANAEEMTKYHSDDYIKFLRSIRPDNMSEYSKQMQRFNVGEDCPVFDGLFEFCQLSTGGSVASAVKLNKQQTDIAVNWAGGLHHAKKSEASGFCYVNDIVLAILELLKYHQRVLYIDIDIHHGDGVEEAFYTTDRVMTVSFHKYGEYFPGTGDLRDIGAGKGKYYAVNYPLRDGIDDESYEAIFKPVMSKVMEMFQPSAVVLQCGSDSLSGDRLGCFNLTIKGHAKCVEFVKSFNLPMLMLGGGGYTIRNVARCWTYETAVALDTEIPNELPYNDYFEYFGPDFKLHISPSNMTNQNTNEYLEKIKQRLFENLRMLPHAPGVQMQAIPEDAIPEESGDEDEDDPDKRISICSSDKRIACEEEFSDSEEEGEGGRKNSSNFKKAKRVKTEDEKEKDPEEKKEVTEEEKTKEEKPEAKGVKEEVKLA
Chain of HDAC3 (O15379 whole entry): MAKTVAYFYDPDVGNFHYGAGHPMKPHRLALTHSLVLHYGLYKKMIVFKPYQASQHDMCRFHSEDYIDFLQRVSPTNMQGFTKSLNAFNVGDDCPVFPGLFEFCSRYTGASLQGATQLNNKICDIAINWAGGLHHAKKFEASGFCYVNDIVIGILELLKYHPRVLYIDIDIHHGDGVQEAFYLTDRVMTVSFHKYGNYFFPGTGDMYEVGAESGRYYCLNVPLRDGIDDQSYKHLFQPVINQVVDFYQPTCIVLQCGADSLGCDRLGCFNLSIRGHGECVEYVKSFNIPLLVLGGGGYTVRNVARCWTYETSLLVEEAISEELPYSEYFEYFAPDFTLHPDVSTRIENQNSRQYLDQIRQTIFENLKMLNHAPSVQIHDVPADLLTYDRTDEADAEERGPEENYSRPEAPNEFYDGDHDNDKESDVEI
Chain of HDAC3 (Q9Y618 395-489 partner limits assumed): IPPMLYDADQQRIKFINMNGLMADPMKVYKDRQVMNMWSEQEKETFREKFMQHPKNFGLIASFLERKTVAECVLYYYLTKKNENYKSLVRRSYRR

For `Cc1cc(C)cc(C(=O)NOCCCCCC(=O)NO)c1` [19i], the CC50 (UM-UC-3-HDAC4) was 740 nM, the IC50 (HDAC2 [1]) was 402 nM and the number of mitoses [2] was “decreased sharply”. The “percentage of cells with micronuclei” value [2] was “increased”, the IC50 (HDAC3) was 236 nM and the clonogenic potential (UC cells) was “impaired the clonogenic potential”. The “in vitro IC50 HDAC2” value (HDAC2 [3]) was “sub-micromolar”, the “caspase 3/7 activity” value [4] was “significant, albeit moderately increased” and the IC50 (HDAC1) was 315 nM. It also gave a CC50 (VM-CUB1) of 970 nM, a CC50 (639-V) of 1030 nM and a CC50 (UM-UC-3) of 820 nM. For the same molecule, the CC50 (HBLAK) was > 5000 nM, the CC50 (HEK-293) was 610 nM and the IC50 (HDAC10) was 491 nM.
